Publication PMC9322189, “Development of a Personalized Tumor Neoantigen Based Vaccine Formulation (FRAME-001) for Use in a Phase II Trial for the Treatment of Advanced Non-Small Cell Lung Cancer” (Pharmaceutics, 2022)

What was measured:
Type in all cases: physicochemical
[1] = Release testing and long-term (frozen) stability of aqueous peptide mixtures (143 µg/mL per peptide in PBS 10 mM pH 7.0), UPLC-MS
[2] = In-use stability of thawed aqueous peptide mixtures at room temperature, UPLC-MS; settings: 4 h room temperature
[3] = Filter experiment: peptide adsorption to the 0.22 µm sterilization filter, UPLC-MS; settings: unfiltered sample

“CKECGRPLDVVHTLLHIRAFMLIKNPMNVK [FRM001P12, neoantigen peptide, in FRM001-M2]” gave a Peptide peak ratio ([1]; in FRM001-M2, 2 w −25 °C) of 22.0%, a Peptide peak ratio ([1]; in FRM001-M2, 4 w −25 °C) of 19.5% and a Peptide peak ratio ([1]; in FRM001-M2, 8 w −25 °C) of 19.6%. For the same sequence, the Peptide peak ratio ([1]; in FRM001-M2, 8 w −80 °C) was 20.5%, the Peptide peak ratio ([1]; in FRM001-M2, 12 w −25 °C) was 18.1% and the Peptide peak ratio ([1]; in FRM001-M2, 12 w −80 °C) was 20.0%. The Peptide peak ratio ([1]; in FRM001-M2, 16 w −25 °C) was 17.9%, the Peptide peak ratio ([1]; in FRM001-M2, 16 w −80 °C) was 19.5% and the Peptide peak ratio ([1]; in FRM001-M2, 32 w −25 °C) was 20.3%. The Peptide peak ratio ([1]; in FRM001-M2, 32 w −80 °C) was 22.6%, the Peptide peak ratio ([1]; in FRM001-M2, t = 0 w) was 24.6% and the Peptide peak ratio ([2]; in FRM001-M2, 2 w −25 °C) was 23.0%. For the same sequence, the Peptide peak ratio ([2]; in FRM001-M2, 4 w −25 °C) was 20.5%, the Peptide peak ratio ([2]; in FRM001-M2, 8 w −25 °C) was 21.0% and the Peptide peak ratio ([2]; in FRM001-M2, 8 w −80 °C) was 21.0%. It also gave a Peptide peak ratio ([2]; in FRM001-M2, 12 w −25 °C) of 19.7%, a Peptide peak ratio ([2]; in FRM001-M2, 12 w −80 °C) of 20.6% and a Peptide peak ratio ([2]; in FRM001-M2, 16 w −25 °C) of 18.9%. It also gave a Peptide peak ratio ([2]; in FRM001-M2, 16 w −80 °C) of 20.0%, a Peptide peak ratio ([2]; in FRM001-M2, 32 w −25 °C) of 22.7% and a Peptide peak ratio ([2]; in FRM001-M2, 32 w −80 °C) of 24.2%. It also gave a Peak ratio ([3]; in FRM001M2) of 27.7%.

For “GCHLFSKRKCSQNKQSKRGKSRFYLSWRPL [FRM001P01, neoantigen peptide of lung tumor LUN021, in FRM001-M1 and FRM001-M4]”, the Peptide peak ratio ([1]; in FRM001-M1, 2 w −25 °C) was 15.0%, the Peptide peak ratio ([1]; in FRM001-M1, 4 w −25 °C) was 14.6% and the Peptide peak ratio ([1]; in FRM001-M1, 8 w −25 °C) was 15.2%. The Peptide peak ratio ([1]; in FRM001-M1, 8 w −80 °C) was 15.0%, the Peptide peak ratio ([1]; in FRM001-M1, 12 w −25 °C) was 15.9% and the Peptide peak ratio ([1]; in FRM001-M1, 12 w −80 °C) was 15.5%. It also gave a Peptide peak ratio ([1]; in FRM001-M1, 16 w −25 °C) of 15.4%, a Peptide peak ratio ([1]; in FRM001-M1, 16 w −80 °C) of 15.3% and a Peptide peak ratio ([1]; in FRM001-M1, 32 w −25 °C) of 13.4%. The Peptide peak ratio ([1]; in FRM001-M1, 32 w −80 °C) was 14.2%, the Peptide peak ratio ([1]; in FRM001-M1, t = 0 w, % area of peptide peak of sum of the six peptide peaks) was 15.0% and the Peptide peak ratio ([1]; in FRM001-M4, 2 w −25 °C) was 14.5%. It also gave a Peptide peak ratio ([1]; in FRM001-M4, 4 w −25 °C) of 15.4%, a Peptide peak ratio ([1]; in FRM001-M4, 8 w −25 °C) of 15.1% and a Peptide peak ratio ([1]; in FRM001-M4, 8 w −80 °C) of 15.2%. The Peptide peak ratio ([1]; in FRM001-M4, 12 w −25 °C) was 15.1%, the Peptide peak ratio ([1]; in FRM001-M4, 12 w −80 °C) was 14.8% and the Peptide peak ratio ([1]; in FRM001-M4, 16 w −25 °C) was 12.5%. It also gave a Peptide peak ratio ([1]; in FRM001-M4, 16 w −80 °C) of 12.5%, a Peptide peak ratio ([1]; in FRM001-M4, 32 w −25 °C) of 12.9% and a Peptide peak ratio ([1]; in FRM001-M4, 32 w −80 °C) of 14.7%. The Peptide peak ratio ([1]; in FRM001-M4, t = 0 w) was 14.4%, the Peptide peak ratio ([2]; in FRM001-M1, 2 w −25 °C) was 15.2% and the Peptide peak ratio ([2]; in FRM001-M1, 4 w −25 °C) was 14.8%. It also gave a Peptide peak ratio ([2]; in FRM001-M1, 8 w −25 °C) of 15.3%, a Peptide peak ratio ([2]; in FRM001-M1, 8 w −80 °C) of 15.2% and a Peptide peak ratio ([2]; in FRM001-M1, 12 w −25 °C) of 15.3%. The Peptide peak ratio ([2]; in FRM001-M1, 12 w −80 °C) was 15.3%, the Peptide peak ratio ([2]; in FRM001-M1, 16 w −25 °C) was 15.5% and the Peptide peak ratio ([2]; in FRM001-M1, 16 w −80 °C) was 15.6%. It also gave a Peptide peak ratio ([2]; in FRM001-M1, 32 w −25 °C) of 14.1%, a Peptide peak ratio ([2]; in FRM001-M1, 32 w −80 °C) of 14.1% and a Peptide peak ratio ([2]; in FRM001-M4, 2 w −25 °C) of 14.7%. It also gave a Peptide peak ratio ([2]; in FRM001-M4, 4 w −25 °C) of 15.5%, a Peptide peak ratio ([2]; in FRM001-M4, 8 w −25 °C) of 15.3% and a Peptide peak ratio ([2]; in FRM001-M4, 8 w −80 °C) of 15.5%. For the same sequence, the Peptide peak ratio ([2]; in FRM001-M4, 12 w −25 °C) was 14.8%, the Peptide peak ratio ([2]; in FRM001-M4, 12 w −80 °C) was 15.1% and the Peptide peak ratio ([2]; in FRM001-M4, 16 w −25 °C) was 12.4%. For the same sequence, the Peptide peak ratio ([2]; in FRM001-M4, 16 w −80 °C) was 12.4%, the Peptide peak ratio ([2]; in FRM001-M4, 32 w −25 °C) was 13.1% and the Peptide peak ratio ([2]; in FRM001-M4, 32 w −80 °C) was 14.9%. The Peak ratio ([3]; in FRM001M1) was 14.8% and the Peak ratio ([3]; in FRM001M4) was 14.9%.
